The record followed here is paper PMC5584254, “Identification of novel small molecule Beclin 1 mimetics activating autophagy” (Oncotarget, 2017).

Series [1] deals with DU145, PC-3a and PC-3 prostate cancer cell lines. In words: MTT-based cytotoxicity assay, all three prostate cancer cell lines. Also on record: species or system Human. Conditions: for IC50: Homo sapiens, DU-145, MTT, DU145, PC-3a and PC-3, read-out: cytotoxicity IC50, stated for all three cell lines together. The source says: We also tested the cytotoxicity of the 17 compounds in human prostate cancer cell lines by MTT assay (Table 1).
Human prostate cancer cell lines PC-3 and DU145, were purchased from American Type Culture Collection (ATCC) and used within 50 passages. […] All cells were maintained in DMEM (Mediatech, Manassas, VA) supplemented with 10% fetal bovine serum (FBS) (Sigma-Aldrich, St. Louis, MO), 1% Glutamine (Mediatech, Manassas, VA), 1% antibiotics (Mediatech, Manassas, VA). Compounds for primary FP-based HTS screening were from Prestwick, Microsource, University of Kansas Center of Excellence in Chemical Methodologies & Library Development (KU CMLD, Lawrence, KS), and Chembridge libraries. Compounds for MTT and SPR validation experiment were purchased from Microsource (Gaylordsville, CT) and Hit2lead Company (San Diego, CA). […] (–)-Gossypol was isolated from racemic gossypol as we previously described. ABT-263 and DMSO were purchased from Sigma. MTT-based cytotoxicity assay and western blot analysis was carried out according to our previous publications. The primary antibodies used were LC3B (#2775) (Cell signaling Technology, Danvers, MA) and β-actin (A5441) (Sigma).
(In general: Tetrazolium assays rely on reduction of a dye to a coloured formazan, in cell work by metabolically active cells.)

The target in series [2] is T1, Bcl-xL protein (Homo sapiens, UniProt Q07817).
T1 construct: made in house
T1 sequence (Q07817 whole entry): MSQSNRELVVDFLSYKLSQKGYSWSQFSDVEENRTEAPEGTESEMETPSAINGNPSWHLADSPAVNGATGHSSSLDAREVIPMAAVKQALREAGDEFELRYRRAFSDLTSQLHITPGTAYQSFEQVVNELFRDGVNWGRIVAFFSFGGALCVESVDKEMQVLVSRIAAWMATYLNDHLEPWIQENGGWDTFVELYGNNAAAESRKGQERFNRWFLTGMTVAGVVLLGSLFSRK
Put plainly: Surface plasmon resonance assay, immobilized Bcl-xL. Format: binding. Conditions: for binding level to Bcl-xL protein in SPR: 10 μM compound, Bcl-xL immobilized 10000 RU. How it is done: (§1) The surface plasmon resonance experiments were performed using a Biacore 3000 (GE Healthcare Pittsburgh, PA) equipped with a research-grade CM5 sensor chip. The ligand (Bcl-xL) was immobilized using amine-coupling chemistry. The surfaces of flow cells on a Biacore sensor chip CM5 were activated for 7 min with a 1:1 mixture of 0.1 M NHS (N-hydroxysuccinimide) and 0.1 M EDC (3-(N,N-dimethylamino) propyl-N-ethylcarbodiimide) at a flow rate of 5 μL/min. The ligand (Bcl-xL) at a concentration of 180 μg/mL in 10 mM sodium acetate, pH 4.5, was immobilized at a density of about 10000 RU on flow cell 2; the ligand (SUMO-Bcl-2, 37.5 kDa, > 90% pure based on SDS–PAGE) at a concentration of 44 μg/ml in 10 mM sodium acetate, pH 4.5, was immobilized at a density of 10000 RU on flow cell 3; flow cell 1 was left blank to serve as a reference surface. All the surfaces were blocked with a 7 min injection of 1 M ethanolamine, pH 8.0.
(§2) For kinetic analysis, a concentration series of analyte were injected over the flow cells at a flow rate of 60 μL/min at 20 °C. The complex was allowed to associate and dissociate for 120 and 180 s, respectively. For binding studies, analyte (or test compound) was injected over the two flow cells in duplicate at indicated concentration at a flow rate of 60 μL/min at 20 °C. The running buffer consisted of 20 mM HEPES, 150 mM NaCl, 3 mM EDTA, 1 mM DTT, 0.05% P20, 5% DMSO, pH 7.4. The complex was allowed to associate and dissociate for 120 and 180 s, respectively. The buffer samples containing a range of 4–6% DMSO were injected at the beginning, used for solvent correction. The surfaces were regenerated between binding cycles with a 5 s injection of 5 mM NaOH for compounds and 10 mM Glycine pH 2.5 for 20-mer.
All measurements were taken with flow cell 1 as a reference (i.e. sensorgram depicts “2–1 correction”) and corrected for DMSO bulk differences via the calibration curves. To obtain kinetic rate constants (Ka and Kd), corrected response data were fit to a simple 1:1 interaction model using local fit (includes correction for mass transport limitations) available within Biaevaluation 3.1 software or Scrubber2 software. The equilibrium dissociation constant (KD) was determined by Kd/Ka.
Background: Surface plasmon resonance follows binding to a sensor surface in real time, without labels.

The test system of series [3] is PC-3a. Put plainly: MTT-based cytotoxicity assay, PC-3a. Conditions: Homo sapiens, averages of at least two independent experiments, read-out: Cytotoxicity in different cell lines (IC50, μM) PC-3a. The source says: (§3) Human prostate cancer cell lines PC-3 and DU145, were purchased from American Type Culture Collection (ATCC) and used within 50 passages. PC-3a is a derivative of PC-3 that is resistant to chemo/radiotherapy, established in our lab and confirmed by genotyping. All cells were maintained in DMEM (Mediatech, Manassas, VA) supplemented with 10% fetal bovine serum (FBS) (Sigma-Aldrich, St. Louis, MO), 1% Glutamine (Mediatech, Manassas, VA), 1% antibiotics (Mediatech, Manassas, VA). Compounds for primary FP-based HTS screening were from Prestwick, Microsource, University of Kansas Center of Excellence in Chemical Methodologies & Library Development (KU CMLD, Lawrence, KS), and Chembridge libraries. Compounds for MTT and SPR validation experiment were purchased from Microsource (Gaylordsville, CT) and Hit2lead Company (San Diego, CA). Acridine analogues, compound 1–6, were from our in-house library (provided by Specialized Chemistry Center, University of Kansas, Lawrence, KS); compound 7–17 were synthesized as described in supplementary information. (–)-Gossypol was isolated from racemic gossypol as we previously described. ABT-263 and DMSO were purchased from Sigma. MTT-based cytotoxicity assay and western blot analysis was carried out according to our previous publications. The primary antibodies used were LC3B (#2775) (Cell signaling Technology, Danvers, MA) and β-actin (A5441) (Sigma).

Series [4] concerns PC-3. Put plainly: MTT-based cytotoxicity assay, PC-3. Conditions: Homo sapiens, averages of at least two independent experiments, read-out: Cytotoxicity in different cell lines (IC50, μM) PC-3.
From the text: as §3

In series [5] the test system is PC-3 and PC-3a prostate cancer cells. Put plainly: Western blot of autophagy markers (LC3 conversion, P62). Format: cell-based, Human. How it is done: Figure 5 Acridine compounds induce autophagy in prostate cancer cells (A) LC3-II conversion in western blot analysis indicated the activity of autophagy. Cells were treated with DMSO or compounds for 24 h, and then lysed and processed for western blot analysis of LC3. (–)G and EBSS were used as positive controls. […] Yellow puncta indicate autophagosome (overlay of red and green fluorescence); red puncta indicate autolysosome (due to green fluorescence quenching at the acidic condition). Cells expressing RFP-GFP-LC3 were treated with compounds A13, A15 or A21 at indicated concentration for 24 h.
Figure 8 Acridine compounds induce autophagy in PC-3 and PC-3a cancer cells LC3-II conversion in western blot analysis indicated the activity of autophagy. Cells were treated with DMSO or compounds for 24 h, and then lysed and processed for western blot analysis of LC3. (–)G and EBSS were used as positive controls.
as §3

The target of series [6] is Bcl-2 protein (SUMO-Bcl-2) (Homo sapiens, UniProt P10415). In words: Surface plasmon resonance assay, immobilized Bcl-2. It is filed as binding. The procedure: as §1, §2
Sequence of Bcl-2 protein (SUMO-Bcl-2) (P10415 1-211 limits assumed): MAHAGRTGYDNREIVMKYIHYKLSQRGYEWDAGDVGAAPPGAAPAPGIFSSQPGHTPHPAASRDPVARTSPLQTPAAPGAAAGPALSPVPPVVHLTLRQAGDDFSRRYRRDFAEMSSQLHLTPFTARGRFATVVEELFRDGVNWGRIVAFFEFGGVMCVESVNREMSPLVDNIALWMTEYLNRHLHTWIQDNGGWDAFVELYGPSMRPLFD
All measurements were taken with flow cell 1 as a reference (i.e. sensorgram depicts “2–1 correction”) and corrected for DMSO bulk differences via the calibration curves. […] The equilibrium dissociation constant (KD) was determined by Kd/Ka.

The subject of series [7] is DU145. In words: MTT-based cytotoxicity assay, DU145. Conditions: Homo sapiens, DU-145, averages of at least two independent experiments, read-out: Cytotoxicity in different cell lines (IC50, μM) DU145.
From the text: as §3

Consider `CCN(CC)CCCCNc1c2ccc(Cl)cc2nc2ccc(OC)cc12` [Compound 7], for which the 50% inhibitory concentration (IC50) – broadly, the concentration that gives 50% inhibition – in series [1] is less than 0.5 µM; in series [3] it was 0.1 ± 0.05 µM; in series [4], 0.11 ± 0.07 µM; in series [7], 0.27 ± 0.13 µM. The “fold difference in IC50 value, PC-3 and PC-3a versus DU145” value in series [1] (higher cytotoxicity in PC-3 and PC-3a than in DU145) was 3–5 fold. Besides, the kon in series [2] (SPR kinetic analysis, 1:1 model, read-out: association rate (Ka) to Bcl-xL) was determined as 29600 M⁻¹ s⁻¹; in series [6] (SPR kinetic analysis, 1:1 model, read-out: association rate (Ka) to Bcl-2) it was 3200 M⁻¹ s⁻¹. Further, the koff in series [2] (SPR kinetic analysis, 1:1 model, read-out: dissociation rate (Kd) from Bcl-xL) turned out to be 0.193 s⁻¹; in series [6] (SPR kinetic analysis, 1:1 model, read-out: dissociation rate (Kd) from Bcl-2) it was 0.51 s⁻¹. In series [2] (SPR), the “binding level to Bcl-xL protein in SPR” value is “higher binding level than original hit A21”. The Kd (usually the concentration at which binding is half-saturated) in series [2] (SPR, KD = Kd/Ka, read-out: equilibrium dissociation constant KD to immobilized Bcl-xL) is 6.5 µM; in series [6] (SPR, KD = Kd/Ka, read-out: equilibrium dissociation constant KD to immobilized Bcl-2), 160 µM. The “selectivity for Bcl-xL protein over Bcl-2” value in series [2] (from SPR KD values) is on record as “about 25 fold”. Moreover, the “SQSTM1/P62 turnover” value in series [5] is given as “degradation of P62”. The “LC3-I to LC3-II conversion” value in series [5] (24 h treatment) is listed as “triggered the conversion of LC3-I to LC3-II”.

For `COc1ccc2nc3cc(Cl)ccc3c(N3CCN(C)CC3)c2c1` [Compound 9], the melting point – broadly, the temperature, or range, at which the solid turns liquid – fell in the range of 135 to 138 °C. The IC50 in series [3] is 3.51 ± 1.15 µM. Also, in series [4], the IC50 turned out to be 2.93 ± 1.18 µM. The IC50 in series [7] was 6.24 ± 1.86 µM.

In turn, `COc1ccc2nc3cc(Cl)ccc3c(-c3ccc([N+](=O)[O-])cc3)c2c1` [Compound 14] had a melting point of 207 to 211 °C. The IC50 in series [1] is more than 100 µM. In addition, in series [2] (SPR), the “binding level to Bcl-xL protein in SPR” value was “almost no binding”. In addition, the IC50 in series [3] is more than 100 µM. The IC50 in series [4] is more than 100 µM. Also, the IC50 in series [7] was more than 100 µM.
